Results taken from ChEMBL document CHEMBL4312009, “Multigram scale synthesis of polycyclic lactones and evaluation of antitumor and other biological properties” (Eur J Med Chem, 2020).

Experiments:
CYP1A1 = test: Selectivity index, ratio of IC50 of cytotoxicity against CHO cells to IC50 for bioactivation in CYP1A1 (unknown origin) transfected CHO cells assessed as CYP1A1-mediated drug activation by measuring reduction in cell viability; format: cell-based; settings: hamster, CHO cells and CYP1A1-transfected CHO cells; read-out: Ratio IC50
[1] = molecular target: Apolipoprotein C-III (Homo sapiens) (UniProt P02656); test: Inhibition of human APOC3 at 40 uM relative to control
HeLa [2] = test: Cell cycle arrest in human HeLa cells assessed as effect on 4N stage incubated for 21 hrs by propidium iodide based flow cytometry; format: functional
HeLa [3] = test: Cell cycle arrest in human HeLa cells assessed as effect on S phase incubated for 21 hrs by propidium iodide based flow cytometry; format: functional
[4] = tested on: GTPase KRas (Homo sapiens), P01116 [UNDEFINED MUTATION]; test: Inhibition of KRas mutant in human DLD1 cells assessed as cell viability by measuring ATP at 20 uM relative to control; format: cell-based
[5] = tested on: GTPase KRas (Homo sapiens), P01116 [UNDEFINED MUTATION]; test: Inhibition of KRas mutant in human HCT116 cells […] assessed as cell viability by measuring ATP at 0.2 uM relative to control; format: cell-based
[6] = tested on: GTPase KRas (Homo sapiens), P01116 [UNDEFINED MUTATION]; test: Inhibition of KRas mutant in human HCT116 cells […] assessed as cell viability by measuring ATP at 2 uM relative to control; format: cell-based
[7] = tested on: GTPase KRas (Homo sapiens), P01116 [UNDEFINED MUTATION]; test: Inhibition of KRas mutant in human SW480 cells assessed as cell viability by measuring ATP; format: cell-based
HeLa [8] = test: Cell cycle arrest in human HeLa cells assessed as effect on G1 phase incubated for 21 hrs by propidium iodide based flow cytometry; format: functional
[9] = molecular target: T1, Angiopoietin-like protein 8 (Homo sapiens) (UniProt Q6UXH0); test: Inhibition of human Angptl8 at 40 uM relative to control
T1 sequence (whole entry): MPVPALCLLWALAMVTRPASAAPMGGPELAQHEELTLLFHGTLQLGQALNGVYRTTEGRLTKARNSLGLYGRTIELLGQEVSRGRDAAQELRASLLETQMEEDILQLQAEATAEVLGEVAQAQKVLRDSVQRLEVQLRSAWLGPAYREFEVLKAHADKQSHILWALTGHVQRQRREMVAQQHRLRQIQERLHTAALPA

HT-29 [10] = test: Antiproliferative activity against human HT-29 cells assessed as reduction in cell viability incubated for 24 hrs in hypoxia condition by MTT assay; format: functional, cell-based; settings: HT-29, 24 h
HeLa [11] = test: Cell cycle arrest in human HeLa cells assessed as effect on 2N stage incubated for 21 hrs by propidium iodide based flow cytometry; format: functional
[12] = Activation of wnt pathway in mouse C2C12 cells assessed as increase in beta-catenin activity; format: cell-based
HT-29 [13] = test: Selectivity index, ratio of IC50 of antiproliferative activity against human HT-29 cells in normoxia to IC50 of antiproliferative activity against human HT-29 cells in hypoxia condition; format: functional
HT-29 [14] = test: Antiproliferative activity against human HT-29 cells assessed as reduction in cell viability incubated for 24 hrs by MTT assay; format: functional, cell-based; settings: HT-29, 24 h
[15] = tested on: GTPase KRas (Homo sapiens), P01116 [UNDEFINED MUTATION]; test: Inhibition of KRas mutant in human DLD1 cells assessed as cell viability by measuring ATP; format: cell-based
[16] = molecular target: Sodium channel protein type 9 subunit alpha (Homo sapiens) (UniProt Q15858); test: Inhibition of human Nav1.7 at 40 uM relative to control
[17] = tested on: GTPase KRas (Homo sapiens), P01116 [UNDEFINED MUTATION]; test: Inhibition of KRas mutant in human DLD1 cells assessed as cell viability by measuring ATP at 2 uM relative to control; format: cell-based
[18] = molecular target: Proprotein convertase subtilisin/kexin type 9 (Homo sapiens) (UniProt Q8NBP7); test: Inhibition of human PCSK9 at 40 uM relative to control
[19] = tested on: GTPase KRas (Homo sapiens), P01116 [UNDEFINED MUTATION]; test: Inhibition of KRas mutant in human DLD1 cells assessed as cell viability by measuring ATP at 0.2 uM relative to control; format: cell-based
[20] = tested on: GTPase KRas (Homo sapiens), P01116 [UNDEFINED MUTATION]; test: Inhibition of KRas mutant in human HCT116 cells assessed as cell viability by measuring ATP at 20 uM relative to control; format: cell-based
[21] = tested on: GTPase KRas (Homo sapiens), P01116 [UNDEFINED MUTATION]; test: Inhibition of KRas mutant in human SW480 cells assessed as cell viability by measuring ATP at 2 uM relative to control; format: cell-based
[22] = tested on: GTPase KRas (Homo sapiens), P01116 [UNDEFINED MUTATION]; test: Inhibition of KRas mutant in human SW480 cells assessed as cell viability by measuring ATP at 20 uM relative to control; format: cell-based
CHO = test: Cytotoxicity against CHO cells assessed as reduction in cell viability; format: cell-based; settings: Cricetulus griseus
[23] = tested on: GTPase KRas (Homo sapiens), P01116 [UNDEFINED MUTATION]; test: Inhibition of KRas mutant in human HCT116 cells […] assessed as cell viability by measuring ATP; format: cell-based
[24] = tested on: GTPase KRas (Homo sapiens), P01116 [UNDEFINED MUTATION]; test: Inhibition of KRas mutant in human HCT116 cells assessed as cell viability by measuring ATP at 0.2 uM relative to control; format: cell-based
[25] = tested on: GTPase KRas (Homo sapiens), P01116 [UNDEFINED MUTATION]; test: Inhibition of KRas mutant in human HCT116 cells […] assessed as cell viability by measuring ATP at 20 uM relative to control; format: cell-based
[26] = tested on: GTPase KRas (Homo sapiens), P01116 [UNDEFINED MUTATION]; test: Inhibition of KRas mutant in human HCT116 cells assessed as cell viability by measuring ATP; format: cell-based
[27] = tested on: GTPase KRas (Homo sapiens), P01116 [UNDEFINED MUTATION]; test: Inhibition of KRas mutant in human HCT116 cells assessed as cell viability by measuring ATP at 2 uM relative to control; format: cell-based
[28] = Activation of wnt pathway in mouse C2C12 cells assessed as increase in alkaline phosphatase activity; format: cell-based
[29] = tested on: GTPase KRas (Homo sapiens), P01116 [UNDEFINED MUTATION]; test: Inhibition of KRas mutant in human SW480 cells assessed as cell viability by measuring ATP at 0.2 uM relative to control; format: cell-based
[30] = molecular target: Microtubule-associated protein tau (Homo sapiens) (UniProt P10636); test: Inhibition of human Tau at 40 uM relative to control
HeLa [31] = test: Cell cycle arrest in human HeLa cells assessed as effect on mitotic index incubated for 21 hrs by propidium iodide based flow cytometry; format: functional
HeLa [32] = test: Cell cycle arrest in human HeLa cells incubated for 21 hrs by propidium iodide based flow cytometry; format: functional

Sequence of GTPase KRas (Homo sapiens), P01116 [UNDEFINED MUTATION] (P01116 whole entry, looked up, change not shown): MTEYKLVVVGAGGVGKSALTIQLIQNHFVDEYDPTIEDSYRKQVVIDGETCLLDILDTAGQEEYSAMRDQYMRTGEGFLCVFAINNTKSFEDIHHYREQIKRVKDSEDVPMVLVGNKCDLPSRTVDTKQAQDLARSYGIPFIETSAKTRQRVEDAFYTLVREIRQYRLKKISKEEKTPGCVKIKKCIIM
Sequence of Microtubule-associated protein tau (Homo sapiens) (P10636 whole entry): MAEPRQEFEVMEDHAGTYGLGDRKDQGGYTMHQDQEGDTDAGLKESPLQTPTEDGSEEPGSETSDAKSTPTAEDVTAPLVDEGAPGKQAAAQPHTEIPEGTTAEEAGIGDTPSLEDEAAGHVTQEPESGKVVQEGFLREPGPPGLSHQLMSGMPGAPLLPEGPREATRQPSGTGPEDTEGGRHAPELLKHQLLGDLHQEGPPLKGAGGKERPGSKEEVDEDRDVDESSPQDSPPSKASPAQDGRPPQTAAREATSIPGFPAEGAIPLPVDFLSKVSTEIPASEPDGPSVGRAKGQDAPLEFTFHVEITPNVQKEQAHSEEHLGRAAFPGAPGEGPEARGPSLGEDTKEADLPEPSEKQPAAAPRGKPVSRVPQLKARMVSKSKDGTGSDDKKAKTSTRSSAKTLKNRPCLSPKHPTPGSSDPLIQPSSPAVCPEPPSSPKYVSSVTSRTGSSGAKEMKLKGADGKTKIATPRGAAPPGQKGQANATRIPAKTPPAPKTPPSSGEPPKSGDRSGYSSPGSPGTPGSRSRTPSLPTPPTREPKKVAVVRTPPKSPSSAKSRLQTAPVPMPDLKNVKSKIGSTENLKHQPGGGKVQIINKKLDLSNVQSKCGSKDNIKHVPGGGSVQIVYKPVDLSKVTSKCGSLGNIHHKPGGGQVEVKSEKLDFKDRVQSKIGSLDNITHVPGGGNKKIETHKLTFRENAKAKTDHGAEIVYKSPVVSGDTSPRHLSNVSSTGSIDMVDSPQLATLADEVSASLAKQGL
Sequence of Sodium channel protein type 9 subunit alpha (Homo sapiens) (Q15858 whole entry, looked up): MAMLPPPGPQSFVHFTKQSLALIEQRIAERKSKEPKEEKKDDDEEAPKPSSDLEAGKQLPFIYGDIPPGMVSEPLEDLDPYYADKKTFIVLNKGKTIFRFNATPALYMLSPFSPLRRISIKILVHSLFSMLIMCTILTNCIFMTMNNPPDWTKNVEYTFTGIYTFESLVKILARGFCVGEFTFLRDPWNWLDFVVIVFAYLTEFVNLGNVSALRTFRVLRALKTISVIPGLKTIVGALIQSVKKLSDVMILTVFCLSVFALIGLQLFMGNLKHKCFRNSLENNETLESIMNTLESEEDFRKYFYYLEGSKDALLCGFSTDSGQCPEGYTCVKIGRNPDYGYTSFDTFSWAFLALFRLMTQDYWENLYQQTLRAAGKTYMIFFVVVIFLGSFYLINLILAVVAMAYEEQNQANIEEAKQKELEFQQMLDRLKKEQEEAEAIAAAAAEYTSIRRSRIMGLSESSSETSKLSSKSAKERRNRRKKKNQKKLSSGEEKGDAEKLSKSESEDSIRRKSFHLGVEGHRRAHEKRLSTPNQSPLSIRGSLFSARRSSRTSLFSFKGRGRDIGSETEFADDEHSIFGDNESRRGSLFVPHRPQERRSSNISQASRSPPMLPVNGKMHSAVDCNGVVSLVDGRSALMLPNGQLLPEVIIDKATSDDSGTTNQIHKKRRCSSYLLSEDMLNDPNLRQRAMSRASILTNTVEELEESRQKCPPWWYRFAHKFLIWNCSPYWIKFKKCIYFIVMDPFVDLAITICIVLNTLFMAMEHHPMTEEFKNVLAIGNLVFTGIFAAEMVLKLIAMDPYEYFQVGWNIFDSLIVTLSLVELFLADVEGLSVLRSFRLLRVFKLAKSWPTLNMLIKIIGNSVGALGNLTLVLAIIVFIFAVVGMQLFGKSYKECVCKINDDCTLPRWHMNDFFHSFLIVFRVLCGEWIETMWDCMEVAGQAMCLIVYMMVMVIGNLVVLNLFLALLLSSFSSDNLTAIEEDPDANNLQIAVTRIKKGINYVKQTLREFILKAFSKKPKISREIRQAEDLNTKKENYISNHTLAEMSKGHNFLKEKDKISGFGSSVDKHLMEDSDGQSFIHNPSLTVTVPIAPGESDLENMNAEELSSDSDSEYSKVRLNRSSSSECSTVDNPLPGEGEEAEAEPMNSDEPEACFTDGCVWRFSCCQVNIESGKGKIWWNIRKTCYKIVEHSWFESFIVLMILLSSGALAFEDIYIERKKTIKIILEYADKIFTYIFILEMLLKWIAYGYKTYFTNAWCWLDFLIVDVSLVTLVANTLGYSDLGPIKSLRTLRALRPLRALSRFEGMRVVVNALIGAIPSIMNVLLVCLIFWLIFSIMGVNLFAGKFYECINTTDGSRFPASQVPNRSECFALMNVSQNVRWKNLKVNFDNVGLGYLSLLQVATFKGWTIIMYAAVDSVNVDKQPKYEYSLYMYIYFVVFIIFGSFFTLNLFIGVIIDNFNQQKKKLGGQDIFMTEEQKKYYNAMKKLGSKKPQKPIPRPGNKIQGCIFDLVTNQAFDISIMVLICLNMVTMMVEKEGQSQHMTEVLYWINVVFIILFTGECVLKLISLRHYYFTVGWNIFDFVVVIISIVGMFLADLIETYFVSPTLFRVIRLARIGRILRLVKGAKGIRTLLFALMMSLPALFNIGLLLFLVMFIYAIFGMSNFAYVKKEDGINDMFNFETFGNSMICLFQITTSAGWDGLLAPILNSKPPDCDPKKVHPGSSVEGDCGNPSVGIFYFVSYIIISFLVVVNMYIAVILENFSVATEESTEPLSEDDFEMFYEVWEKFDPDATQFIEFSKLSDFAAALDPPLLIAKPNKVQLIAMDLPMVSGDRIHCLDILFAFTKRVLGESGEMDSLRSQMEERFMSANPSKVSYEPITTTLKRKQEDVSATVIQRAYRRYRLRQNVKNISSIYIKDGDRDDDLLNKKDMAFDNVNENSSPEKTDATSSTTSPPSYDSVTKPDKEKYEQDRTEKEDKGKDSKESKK
Sequence of Apolipoprotein C-III (Homo sapiens) (P02656 whole entry): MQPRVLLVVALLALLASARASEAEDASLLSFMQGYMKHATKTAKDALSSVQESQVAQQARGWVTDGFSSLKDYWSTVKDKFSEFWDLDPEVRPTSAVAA
Sequence of Proprotein convertase subtilisin/kexin type 9 (Homo sapiens) (Q8NBP7 31-152 limits assumed): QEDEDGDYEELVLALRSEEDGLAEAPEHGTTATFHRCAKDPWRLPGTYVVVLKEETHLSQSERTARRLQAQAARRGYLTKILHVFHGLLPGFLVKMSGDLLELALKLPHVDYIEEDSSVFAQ
Sequence of Proprotein convertase subtilisin/kexin type 9 (Homo sapiens) (Q8NBP7 153-692 limits assumed): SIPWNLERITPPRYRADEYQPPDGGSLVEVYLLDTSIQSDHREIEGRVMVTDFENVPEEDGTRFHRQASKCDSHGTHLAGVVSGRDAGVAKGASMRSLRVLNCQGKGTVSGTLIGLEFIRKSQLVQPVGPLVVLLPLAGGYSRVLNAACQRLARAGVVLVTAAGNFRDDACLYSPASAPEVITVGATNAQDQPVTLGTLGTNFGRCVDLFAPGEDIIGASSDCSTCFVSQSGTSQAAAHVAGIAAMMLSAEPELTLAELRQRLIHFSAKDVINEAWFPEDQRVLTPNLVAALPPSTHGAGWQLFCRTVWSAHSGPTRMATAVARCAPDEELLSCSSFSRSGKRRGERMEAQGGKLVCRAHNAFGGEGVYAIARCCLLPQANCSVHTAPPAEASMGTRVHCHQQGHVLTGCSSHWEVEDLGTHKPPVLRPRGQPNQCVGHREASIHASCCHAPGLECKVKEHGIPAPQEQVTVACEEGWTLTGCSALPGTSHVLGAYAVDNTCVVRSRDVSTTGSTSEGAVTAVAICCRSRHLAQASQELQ

inhibition [1]: 89% | EC50 (HeLa [2]): 2000 nM | IC50 (HeLa [3]): > 10000 nM | EC50 (HeLa [8]): > 10000 nM | inhibition [9]: 93% | IC50 (HT-29 [10]): 7330 nM | IC50 (HeLa [11]): 2200 nM | EC50 [12]: > 20000 nM | IC50 (HT-29 [14]): 1730 nM | inhibition [16]: 76% | inhibition [18]: 95% | EC50 [28]: 6700 nM | inhibition [30]: 92% | EC50 (HeLa [31]): 2100 nM | IC50 (HeLa [32]): 1700 nM
SMILES: CCCCc1c2c(c(C)c3c1C(=O)OC3)Oc1ccccc1O2
selectivity ratio (CYP1A1): 3.7 | inhibition [4]: 91% | inhibition [5]: 67% | inhibition [6]: 63% | inhibition [7]: Dose-dependent effect | Ratio IC50 (HT-29 [13]): 0.24 | inhibition [15]: Dose-dependent effect | inhibition [17]: 65% | inhibition [19]: 17% | inhibition [20]: 78% | inhibition [21]: 73% | inhibition [22]: 138% | IC50 (CHO): 1480 nM | inhibition [23]: Dose-dependent effect | inhibition [24]: 5% | inhibition [25]: 80% | inhibition [26]: Dose-dependent effect | inhibition [27]: 66% | inhibition [29]: 17%
